35 compounds from PubChem BioAssay AID463204 (Broad Institute, 2010) can be followed below.

The source made the active and inactive calls.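 Rule for the calls: active = AC50 no more than ten times the top concentration tested, that is within one log above it; inconclusive = flat curve fit with activity between 30% and 70%, or invalid poor fit; inactive = AC50 beyond ten times the top tested dose.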 A value given as a limit tells only on which side of the number the result lay.

This test relates to S. cerevisiae Mot1-301 ts growth rescue, BacTiter-Glo ATP luminescence. Nature of the test: growth rescue of Mot1-301 ts yeast, confirmation, SUMOylation pathway inhibitor project, whole organism, S. cerevisiae, Mot1-301 ts mutant, luminescence, dose retest (AID 463204).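 Note: growth at restrictive 38.5 degrees C of Mot1-301 OY566 strain; actives raise luminescence by restoring growth of the ts mutant at high temperature.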

Regarding `C=CCSC1=C(C#N)C(c2ccc(C(C)C)cc2)CC(=O)N1` (stereo not given), the AC50 was 8.36 µM.
Regarding `CCOC(=O)C1(Cc2cccc(F)c2)CCN(C(=O)c2cnccn2)CC1`, the AC50 is > 42 µM (inactive).
For the compound `O=C(O)C1C2CCC(O2)C1C(=O)NCCC1=CCCCC1` (stereo not given), the AC50 is > 42 µM (inactive).
Take `S=C(Nc1ccc(Cl)cc1)N1CCN(Cc2ccccc2)CC1`: the AC50 is > 42 µM (inactive).
Consider `CCC(=O)Nc1ccc(Br)c(Cl)c1`, for which the AC50 is > 42 µM (inactive).
`CCNC(=O)NC(C(=O)OC)C12CC3CC(CC(C3)C1)C2` (stereo not given): the AC50 is > 42 µM (inactive).
As to `COc1ccccc1NC(=O)N1CCN(C(=O)Nc2ccccc2OC)CC1`, the AC50 is > 42 µM (inactive).
In the case of `CSc1ccc(Cl)c(C(=O)Nc2ccc(N3CCOCC3)cc2)c1`, the AC50 is > 42 µM (inactive).
Take `CC1CN=C(NCc2ccccc2)S1` (stereo not given): the AC50 is > 42 µM (inactive).
With `C=CC[N+]1(CC#Cc2ccccc2)CCCC1`, the AC50 was > 42 µM (inactive).
With `COc1ccc(OCC(=O)O/N=C(\N)Cc2ccc(Cl)cc2)cc1` the figure was > 42 µM (inactive); with `O=C(COC(=O)c1ccccc1SCC(=O)N1CCCC1)NC1CCCCC1`, > 42 µM (inactive).
Take `O=C(COc1ccc(-n2cnnn2)cc1)NCCc1ccc(F)cc1`: the AC50 was > 42 µM (inactive).
Turning to `CCOc1ccccc1NC(=O)CSc1nc(N)c(C#N)cc1C#N`, the AC50 was > 42 µM (inactive).
With `CN=C1SC(CC(=O)Nc2sc3c(c2C#N)CCCC3)C(=O)N1C` (stereo not given), the AC50 was > 42 µM (inactive).
As to `CCc1ccc(S(=O)(=O)NCc2cccnc2)cc1`, the AC50 was > 42 µM (inactive).
As for `CCn1c(=O)n(CC)c2cc(NC(=O)c3ccccc3Cl)ccc21`, the AC50 is > 42 µM (inactive).
For `CCC(=O)N1CCc2cc(S(=O)(=O)CCC(=O)Nc3cccc(C)n3)ccc21` the value was > 42 µM (inactive); for `COC(=O)C1C(c2ccc(OC)c(OC)c2)NC(c2ccc(OC)c(OC)c2)C(C(=O)OC)S1(=O)=O` (stereo not given), > 42 µM (inactive).
Turning to `CC(C)(C)C1c2[nH]c3ccccc3c2CCN1Cc1cccc(OCCO)c1` (stereo not given), the AC50 was > 42 µM (inactive).
Turning to `Cc1ccc(C)n1-c1ccc(N(C)C)cc1`, the AC50 was > 42 µM (inactive).
Take `COc1ccc2c(c1)OC[C@H]1[C@H]2N2C(=O)c3ccccc3NC(=O)[C@@]2(C)[C@H]1c1ccccc1`: the AC50 was > 42 µM (inactive).
For `COc1ccc(Cc2nnc(NCCO)[nH]c2=O)cc1` the value was > 42 µM (inactive).
For the compound `O=C(OCC(=O)N1CCN(Cc2ccccc2)CC1)c1ccc(Cl)cc1`, the AC50 is > 42 µM (inactive).
Regarding `COCC(C)n1c(-c2ccc3c(c2)NC(=O)CO3)csc1=Nc1ccc(OC(F)F)cc1` (stereo not given), the AC50 is 25.2 µM.
On to `Cc1cc(C)cc(C(=O)NC(CC(N)=O)c2ccc(NCCN3CCOCC3)c([N+](=O)[O-])c2)c1` (stereo not given), for which the AC50 is > 42 µM (inactive).
Turning to `COc1ccc(/C=N\Nc2ccc([N+](=O)[O-])cc2)c(C(=O)O)c1OC`, the AC50 is > 42 µM (inactive).
Consider `O=C(c1cc(-c2ccc(Cl)cc2)n(-c2ccc(Cl)cc2)n1)N1CCOCC1`, for which the AC50 was > 42 µM (inactive).
For `Cc1ccc(CC(=O)O/N=C(\N)c2cccc([N+](=O)[O-])c2)cc1` the value was > 42 µM (inactive); for `Cc1nn(C(C)(C)C)c(OC(=O)c2ccc3c(c2)OCO3)c1S(=O)(=O)c1ccccc1`, > 42 µM (inactive).
For `CCOC(=O)N1CCC(NS(=O)(=O)c2ccc(C)c(Cl)c2)CC1`, the AC50 is > 42 µM (inactive).
As for `CC1CCN(CCCOc2ccc(OCc3ccccc3)cc2)CC1`, the AC50 was > 42 µM (inactive).
`Cc1csc(=O)n1CC(=O)OCC(=O)Nc1cc([N+](=O)[O-])ccc1Cl`: the AC50 was > 42 µM (inactive).
Take `COc1ccc(-n2c(-c3ccccc3)nc3ccccc3c2=O)cc1`: the AC50 was > 42 µM (inactive).
Consider `O=C(NCC(c1cccs1)N1CCOCC1)c1ccccc1NS(=O)(=O)c1cc([N+](=O)[O-])ccc1Cl` (stereo not given), for which the AC50 was > 42 µM (inactive).
